Experimental data reported in PMC12446476 (Nature Communications, 2025).
Values after ≈ are worked out from the molar mass of the structure shown. Read-outs that look alike come from different tables or passages of the source.

How the values were obtained:
[1] = test system: intracellular N. gonorrhoeae; assay: Intracellular killing in HeLa229 cells; type: cell-based, Neisseria gonorrhoeae; details: within 24 h
Protocol: Intracellular killing was assessed within HeLa229 cells (European Collection of Authenticated Cell Cultures, London, UK) that were seeded at ~3 × 10^5 cells/mL and grown to 70–80% confluence in RPMI-glutamine media supplemented with 10% (v/v) heat-inactivated fetal bovine serum (FBS, Gibco, MA, USA). Cells were incubated at 37 °C with 5% CO2 for 24 h, then washed with serum-free RPMI-1640 prior to infection. N. gonorrhoeae was scraped from agar plates and resuspended in Dulbecco’s Phosphate Buffered Saline (DPBS, Sigma-Aldrich), pelleted, then resuspended in RPMI with 2% FBS. Bacterial suspensions were used to infect HeLa229 cells at a multiplicity of infection of 100:1. Plates were briefly centrifuged (500 × g for 5 min), then incubated for one hour. This incubation and all subsequent incubations were performed at 37 °C with 5% CO2. Non-adherent cells were removed by washing with serum-free RPMI, and the remaining extracellular bacteria were killed via resuspension in RPMI-glutamine supplemented with 2% FBS and 200 μg/mL gentamycin and incubation for one hour. […] Azithromycin-treated samples were included for control/comparison. […] Samples were diluted and plated onto chocolate II agar for viable bacteria quantification. Intracellular killing assays were performed at Microbiologics, Kalamazoo, MI, USA, using a method adapted from previous studies[68],[69].

N. gonorrhoeae = assay: MIC determination, agar dilution (CLSI); type: cell-based, Neisseria gonorrhoeae; details: for MIC: Neisseria gonorrhoeae
Source text: The 2024 WHO N. gonorrhoeae reference strains were used for quality control. Only whole MIC doubling dilutions are reported. Clinical breakpoints or the epidemiological cutoff (ECOFF, to indicate azithromycin resistance) from EUCAST (v14.0, https://www.eucast.org/clinical_breakpoints) were used to classify isolates as antimicrobial susceptible or resistant. […] Two times the standard inoculum defined by CLSI was used to establish consistent growth in untreated control samples for some strains. In vitro time-kill assays were performed according to CLSI guidelines[65] using Columbia Broth (BD Difco) supplemented with 1% IsoVitaleX Enrichment (BD). Viable bacterial counts were generated by plating 10-fold serially diluted samples on GC agar plates containing 1% IsoVitaleX Enrichment (BD).

CC[C@H]1OC(=O)[C@H](C)[C@@H](O[C@H]2C[C@@](C)(OC)[C@@H](O)[C@H](C)O2)[C@H](C)[C@@H](O[C@@H]2O[C@H](C)C[C@H](N(C)C)[C@H]2O)[C@](C)(O)C[C@@H](C)CN(C)[C@H](C)[C@@H](O)[C@]1(C)O [Azithromycin]
reduction of intracellular bacteria ([1]; ATCC 49226 in HeLa229 cells): ≥ 3.3 log10CFU/mL | reduction of intracellular bacteria ([1]; WHO X in HeLa229 cells): ≥ 2.8 log10CFU/mL

CO/N=C(\C(=O)N[C@@H]1C(=O)N2C(C(=O)O)=C(CSc3nc(=O)c(=O)[nH]n3C)CS[C@H]12)c1csc(N)n1 [Ceftriaxone, reference compound]
susceptibility of all isolates (N. gonorrhoeae; 100 contemporary clinical N. gonorrhoeae isolates, EUCAST): susceptible | MIC (N. gonorrhoeae; ATCC700825, ATCC 700825, mode of multiple measures, read-out: MIC): 0.002 µg/mL (≈ 0.00361 µM) | MIC (N. gonorrhoeae; WHO H, agar dilution, read-out: MIC): 0.25 µg/mL (≈ 0.451 µM) | MIC (N. gonorrhoeae; WHO K, agar dilution, read-out: MIC): 0.06 µg/mL (≈ 0.108 µM) | MIC (N. gonorrhoeae; WHO L, agar dilution, read-out: MIC): 0.25 µg/mL (≈ 0.451 µM) | MIC (N. gonorrhoeae; WHO Q, agar dilution, read-out: MIC): 0.5 µg/mL (≈ 0.902 µM) | MIC (N. gonorrhoeae; WHO R, agar dilution, read-out: MIC): 0.5 µg/mL (≈ 0.902 µM) | MIC (N. gonorrhoeae; WHO S2, agar dilution, read-out: MIC): < 0.008 µg/mL | MIC (N. gonorrhoeae; WHO V, agar dilution, read-out: MIC): 0.06 µg/mL (≈ 0.108 µM) | MIC (N. gonorrhoeae; WHO X-07 (CIP-R, CRO-R), mode of multiple measures, read-out: MIC): 2 µg/mL (≈ 3.61 µM) | MIC (N. gonorrhoeae; WHO Y, agar dilution): 1 µg/mL (≈ 1.8 µM) | AMR phenotype (susceptibility category, EUCAST) (N. gonorrhoeae; WHO F): S | AMR phenotype (susceptibility category, EUCAST) (N. gonorrhoeae; WHO H): R | AMR phenotype (susceptibility category, EUCAST) (N. gonorrhoeae; WHO K): S | AMR phenotype (susceptibility category, EUCAST) (N. gonorrhoeae; WHO L): R | AMR phenotype (susceptibility category, EUCAST) (N. gonorrhoeae; WHO M): S | AMR phenotype (susceptibility category, EUCAST) (N. gonorrhoeae; WHO O): S | AMR phenotype (susceptibility category, EUCAST) (N. gonorrhoeae; WHO P): S | AMR phenotype (susceptibility category, EUCAST) (N. gonorrhoeae; WHO Q): R | AMR phenotype (susceptibility category, EUCAST) (N. gonorrhoeae; WHO R): R | AMR phenotype (susceptibility category, EUCAST) (N. gonorrhoeae; WHO S2): S | AMR phenotype (susceptibility category, EUCAST) (N. gonorrhoeae; WHO U): S | AMR phenotype (susceptibility category, EUCAST) (N. gonorrhoeae; WHO V): S | AMR phenotype (susceptibility category, EUCAST) (N. gonorrhoeae; WHO X): R | AMR phenotype (susceptibility category, EUCAST) (N. gonorrhoeae; WHO Y): R | AMR phenotype (susceptibility category, EUCAST) (N. gonorrhoeae; WHO Z): R
